From patent US11384078B2, “5,6-fused-bicyclic compounds and compositions for the treatment of parasitic diseases” (NOVARTIS AG, priority 2017, dated 2022)
Like-named read-outs stand apart in the source and are kept apart here.

What was measured:
Assay type in all cases: cell-based
[1] = system: Leishmania donovani axenic amastigote; experiment: In vitro assay for growth inhibition of Leishmania donovani axenic amastigote (Cell TiterGlo luminescence); conditions: Leishmania donovani, read-out: L. donovani amastigotes EC50
In short: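 Axenic L. donovani amastigotes (9600/well) grown at 37 °C, 5% CO2 in supplemented RPMI 1640, pH 5.5, with compound added from DMSO. After two days, viability read by CellTiter-Glo luminescence against DMSO and control-compound wells.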

[2] = system: Trypanosoma cruzi amastigotes cultured in 3T3 fibroblast cells; experiment: Assay for growth inhibition of kinetoplastid parasite Trypanosoma cruzi (beta-galactosidase Tulahuen strain, CPRG readout); conditions: Trypanosoma cruzi, Fibroblast, read-out: Buckner infectious T. cruzi EC50
In short: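 3T3 fibroblasts (1,000 cells/well) plated overnight, treated with compound in DMSO, then infected with 10,000 Lac-Z-expressing Tulahuen trypomastigotes. After 6 days, 0.6 mM CPRG with 0.6% NP-40 added for 2 h at room temperature; absorbance gives relative intracellular amastigote numbers. Benznidazole and nifurtimox serve as positive controls.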

[3] = system: Trypanosoma brucei brucei (Lister 427) strain; experiment: Assay for growth inhibition against Trypanosoma brucei brucei (Cell TiterGlo ATP luminescence); conditions: Trypanosoma brucei, read-out: T. Brucei (HAT) EC50
Method: Assay for Growth Inhibition Against Trypanosoma brucei brucei
The proliferation is quantified by the addition of Cell TiterGlo® (Promega®) a luminescent cell viability assay that measures the number of viable cells in culture based on the quantification of cellular ATP amount, which is an indicator of metabolically active cells.
Trypanosoma brucei brucei (Lister 427) strain was grown in Hirumi 9 (HMI-9) media supplemented with 10% v/v fetal bovine serum (FBS) and 10% v/v serum plus. For measurement of cell proliferation inhibition, test compounds were three fold serially diluted in duplicates to 384-well white plates, resulting in 10 dilutions for each compound. A volume of 40 μL of T. b. brucei culture (10,000 parasites/mL) was added to each well, and the assay plates were incubated at 37° C. for 2 days in a CO2 incubator. Growth inhibition was monitored by measuring ATP levels, which, is used as a surrogate marker for growth. Relative luminescence units were measured using TECAN® M1000 after 30 min of adding 40 μl of Cell TiterGlo®. IC50 values were determined by analyzing the data using HELIOS software. IC50 is defined as the lowest concentration of the compound that inhibited 50% growth of the T. b. brucei wild type strain compared to untreated controls.

[4] = L. donovani axenic amastigotes in vitro
[5] = T. cruzi amastigotes in 3T3 fibroblast cells

SMILES	EC50 [1, 4] [nM]	EC50 [2, 5] [nM]	EC50 ([3]; T. brucei brucei (Lister 427)) [nM]	EC50 [1] [nM]	EC50 [2] [nM]	EC50 [3] [nM]
O=C(Nc1ccc(F)c(-n2cc3cc(-c4ccncc4)cnc3n2)c1)N1CC(F)C1 [Compound 182, 3-fluoro-N-(4-fluoro-3-(5-(pyridin-4-yl)-2H-pyrazolo[3,4-b]pyridin-2-yl)phenyl)azetidine-1-carboxamide]	7.6	6.7	< 23	–	–	–
CC(C)c1cnc2nn(-c3cc(NC(=O)N4CC5(CCC5)C4)ccc3F)cc2c1 [Compound 226, N-{4-fluoro-3-[5-(propan-2-yl)-2H-pyrazolo[3,4-b]pyridin-2-yl]phenyl}-2-azaspiro[3.3]heptane-2-carboxamide]	134	129	343	–	–	–
O=C(Nc1ccc(F)c(-n2cc3cc(N4CCN(CC(F)(F)F)CC4)cnc3n2)c1)N1CC[C@@H](F)C1 [Compound 253, (3R)-3-fluoro-N-(4-fluoro-3-{5-[4-(2,2,2-trifluoroethyl)piperazin-1-yl]-2H-pyrazolo[3,4-b]pyridin-2-yl}phenyl)pyrrolidine-1-carboxamide]	3	4	5	–	–	–
CC(C)c1cnc2nn(-c3cc(NC(=O)c4ccc(CN(C)C)o4)ccc3F)cc2c1 [Compound 111, 5-[(dimethylamino)methyl]-N-{4-fluoro-3-[5-(propan-2-yl)-2H-pyrazolo[3,4-b]pyridin-2-yl]phenyl}furan-2-carboxamide]	8700	2900	10000	–	–	–
CC(C)c1cnc2nn(-c3cc(NC(=O)N(C)C)ccc3F)cc2c1 [Compound 228, 1-{4-fluoro-3-[5-(propan-2-yl)-2H-pyrazolo[3,4-b]pyridin-2-yl]phenyl}-3,3-dimethylurea]	31	10	30	–	–	–
CC(C)c1cnc2nn(-c3cc(NC(=O)C4CC(F)(F)C4)ccc3F)cc2c1 [Compound 118, 3,3-difluoro-N-{4-fluoro-3-[5-(propan-2-yl)-2H-pyrazolo[3,4-b]pyridin-2-yl]phenyl}cyclobutane-1-carboxamide]	690	1100	1400	–	–	–
O=C(Nc1ccc(F)c(-n2cc3cc(-n4cccn4)cnc3n2)c1)N1CC(F)C1 [Compound 319, 3-fluoro-N-{4-fluoro-3-[5-(1H-pyrazol-1-yl)-2H-pyrazolo[3,4-b]pyridin-2-yl]phenyl}azetidine-1-carboxamide]	1	1	5	–	–	–
CC(C)c1cnc2nn(-c3cc(NC(=O)N4CC(F)C4)ccc3F)cc2c1 [Compound 156, 3-fluoro-N-{4-fluoro-3-[5-(propan-2-yl)-2H-pyrazolo[3,4-b]pyridin-2-yl]phenyl}azetidine-1-carboxamide]	9.3	5.1	< 23	–	–	–
COC(=O)C12CC(C(=O)Nc3ccc(F)c(-n4cc5cc(C(C)C)cnc5n4)c3)(C1)C2 [Compound 120, methyl 3-({4-fluoro-3-[5-(propan-2-yl)-2H-pyrazolo[3,4-b]pyridin-2-yl]phenyl}carbamoyl)bicyclo[1.1.1]pentane-1-carboxylate]	5200	4300	1800	–	–	–
CC(C)c1cnc2nn(-c3cc(NC(=O)c4cc5ccccc5o4)ccc3F)cc2c1 [Compound 116, N-{4-fluoro-3-[5-(propan-2-yl)-2H-pyrazolo[3,4-b]pyridin-2-yl]phenyl}-1-benzofuran-2-carboxamide]	3100	880	1500	–	–	–
CC(C)c1cnc2nn(-c3cc(NC(=O)c4ccc(C#N)o4)ccc3F)cc2c1 [Compound 112, 5-cyano-N-{4-fluoro-3-[5-(propan-2-yl)-2H-pyrazolo[3,4-b]pyridin-2-yl]phenyl}furan-2-carboxamide]	16	2.8	< 23	–	–	–
Cc1cccnc1-c1cnc2nn(-c3cc(NC(=O)N4CC(F)C4)ccc3F)cc2c1 [Compound 6, 3-fluoro-N-(4-fluoro-3-(5-(3-methylpyridin-2-yl)-2H-pyrazolo[3,4-b]pyridin-2-yl)phenyl)azetidine-1-carboxamide]	12	9.9	< 23	–	–	–
O=C(Nc1ccc(F)c(-n2cc3cc(N4CCS(=O)(=O)CC4)cnc3n2)c1)N1CC(F)C1 [Compound 178, N-{3-[5-(1,1-dioxo-1$|^6,4-thiomorpholin-4-yl)-2H-pyrazolo[3,4-b]pyridin-2-yl]-4-fluorophenyl}-3-fluoroazetidine-1-carboxamide]	160	1600	36	–	–	–
Cc1ccoc1C(=O)Nc1ccc(F)c(-n2cc3cc(C(C)C)cnc3n2)c1 [Compound 115, N-{4-fluoro-3-[5-(propan-2-yl)-2H-pyrazolo[3,4-b]pyridin-2-yl]phenyl}-3-methylfuran-2-carboxamide]	150	14	< 23	–	–	–
O=C(Nc1ccc(F)c(-n2cc3cc(CC4CCC4)cnc3n2)c1)N1CC(F)(F)C1 [Compound 37, N-{3-[5-(cyclobutylmethyl)-2H-pyrazolo[3,4-b]pyridin-2-yl]-4-fluorophenyl}-3,3-difluoroazetidine-1-carboxamide]	23	26	< 23	–	–	–
CC(C)c1cnc2nn(-c3cc(NC(=O)C4(C)CC(F)(F)C4)ccc3F)cc2c1 [Compound 117, 3,3-difluoro-N-{4-fluoro-3-[5-(propan-2-yl)-2H-pyrazolo[3,4-b]pyridin-2-yl]phenyl}-1-methylcyclobutane-1-carboxamide]	9300	5500	13000	–	–	–
Cc1nc(C)c(C(=O)Nc2ccc(F)c(-n3cc4cc(-c5ncccc5C)cnc4n3)c2)o1 [Compound 1, N-(4-fluoro-3-(5-(3-methylpyridin-2-yl)-2H-pyrazolo[3,4-b]pyridin-2-yl)phenyl)-2,4-dimethyloxazole-5-carboxamide]	–	–	–	7.1	5.2	< 23
CC(C)c1cnc2nn(-c3cc(NC(=O)N4CCC4)ccc3F)cc2c1 [Compound 100, N-{4-fluoro-3-[5-(propan-2-yl)-2H-pyrazolo[3,4-b]pyridin-2-yl]phenyl}azetidine-1-carboxamide]	9.2	4.2	< 23	–	–	–
CC(C)c1cnc2nn(-c3cc(NC(=O)N4CC[C@@H](C)C4)ccc3F)cc2c1 [Compound 221, (3R)-N-{4-fluoro-3-[5-(propan-2-yl)-2H-pyrazolo[3,4-b]pyridin-2-yl]phenyl}-3-methylpyrrolidine-1-carboxamide]	3	1	9	–	–	–
O=C(Nc1ccc(F)c(-n2cc3cc(CC4CCC4)cnc3n2)c1)N1CC[C@@H](F)C1 [Compound 51, (3R)-N-{3-[5-(cyclobutylmethyl)-2H-pyrazolo[3,4-b]pyridin-2-yl]-4-fluorophenyl}-3-fluoropyrrolidine-1-carboxamide]	15	19	< 23	–	–	–
O=C(Nc1ccc(F)c(-n2cc3cc(N4CCn5ccnc5C4)cnc3n2)c1)N1CC(F)C1 [Compound 180, 3-fluoro-N-[4-fluoro-3-(5-{5H,6H,7H,8H-imidazo[1,2-a]pyrazin-7-yl}-2H-pyrazolo[3,4-b]pyridin-2-yl)phenyl}azetidine-1-carboxamide]	550	3900	38	–	–	–
O=C(Nc1ccc(F)c(-n2cc3cc(C(F)(F)F)cnc3n2)c1)N1CCC1 [Compound 320, N-{4-fluoro-3-[5-(trifluoromethyl)-2H-pyrazolo[3,4-b]pyridin-2-yl]phenyl}azetidine-1-carboxamide]	8	2	5	–	–	–
CN1CCN(c2cnc3nn(-c4cc(NC(=O)N5CC(F)C5)ccc4F)cc3c2)CC1 [Compound 179, 3-fluoro-N-{4-fluoro-3-[5-(4-methylpiperazin-1-yl)-2H-pyrazolo[3,4-b]pyridin-2-yl]phenyl}azetidine-1-carboxamide]	410	43	< 23	–	–	–
O=C(Nc1ccc(F)c(-n2cc3cc(C4CCC4)cnc3n2)c1)N1CC[C@@H](F)C1 [Compound 45, (3R)-N-(3-{5-cyclobutyl-2H-pyrazolo[3,4-b]pyridin-2-yl}-4-fluorophenyl)-3-fluoropyrrolidine-1-carboxamide]	40	28	< 23	–	–	–
O=C(Nc1ccc(F)c(-n2cc3cc(C(F)(F)F)cnc3n2)c1)N1CC(F)C1 [Compound 321, 3-fluoro-N-{4-fluoro-3-[5-(trifluoromethyl)-2H-pyrazolo[3,4-b]pyridin-2-yl]phenyl}azetidine-1-carboxamide]	18	11	5	–	–	–
